Assay results from PubChem BioAssay (NCI).
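Compound exposure: 48 hours, 5 concentrations, 96-well plates. Here, GI50 denotes the concentration required for 50% inhibition of growth. TGI marks complete inhibition of growth.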

Legend:
Assay in all cases: NCI anticancer screen, dose series, 48 h
786-0 renal = test system: 786-0 renal
BT-549 breast = test system: BT-549 breast
CAKI-1 renal = test system: CAKI-1 renal
HS 578T breast = test system: HS 578T breast
M14 melanoma = test system: M14 melanoma
MDA-MB-231 breast = test system: MDA-MB-231 breast
NCI-H226 lung = test system: NCI-H226 lung
RPMI-8226 leukemia = test system: RPMI-8226 leukemia
T-47D breast = test system: T-47D breast
HL-60(TB) leukemia = test system: HL-60(TB) leukemia

Compound	GI50 (786-0 renal) [µM]	TGI (786-0 renal) [µM]	GI50 (BT-549 breast) [µM]	TGI (BT-549 breast) [µM]	GI50 (CAKI-1 renal) [µM]	TGI (CAKI-1 renal) [µM]	GI50 (HS 578T breast) [µM]	TGI (HS 578T breast) [µM]	GI50 (M14 melanoma) [µM]	TGI (M14 melanoma) [µM]	GI50 (MDA-MB-231 breast) [µM]	TGI (MDA-MB-231 breast) [µM]	GI50 (NCI-H226 lung) [µM]	TGI (NCI-H226 lung) [µM]	GI50 (RPMI-8226 leukemia) [µM]	TGI (RPMI-8226 leukemia) [µM]	GI50 (T-47D breast) [µM]	TGI (T-47D breast) [µM]	TGI (HL-60(TB) leukemia) [µM]	GI50 (HL-60(TB) leukemia) [µM]
N#Cc1cc(S(=O)(=O)Nc2nc3ccccc3o2)c(SCc2ccccc2)cc1Cl	21.8	45.2	20.5	41.3	24.7	65.2	25.4	62	25.4	52.7	24.8	62.9	31.6	80.8	30.9	> 100	23.7	80.9	–	–
Nc1c2ccccc2nc2c(C(=O)Nc3ccc(S(N)(=O)=O)cc3)cccc12	–	> 100	–	–	–	> 100	–	–	–	> 100	–	–	–	> 100	–	> 100	–	–	–	–
COC(=O)C1CCc2nnc(-c3ccccc3)n21 (stereo not given)	–	> 100	–	–	–	> 100	–	–	–	> 100	–	–	–	> 100	–	> 100	–	–	> 100	–
c1ccc(OC2=NC3=S(S2)SC(Oc2ccccc2)=N3)cc1	–	30.6	–	–	–	34.3	–	–	–	34.8	–	–	–	90.4	–	24.8	–	–	42.5	–
NC(Cc1ccccc1)c1nccs1 (stereo not given)	–	> 100	–	> 100	–	> 100	–	> 100	–	> 100	–	> 100	–	> 100	–	> 100	–	–	–	–
CCC[CH2][Sn]1([CH2]CCC)[S]CC[N]1S(=O)(=O)c1ccc(C)cc1	1.26	2.53	–	–	0.675	1.96	–	–	1.64	3.12	–	–	2.03	3.45	0.386	2.01	–	–	2.73	0.581
CCOC(=O)C1=C(C)NC(c2ccco2)=C(C#N)C1c1cccc([N+](=O)[O-])c1 (stereo not given)	0.0104	13.5	0.153	18	0.0223	58.4	–	0.0885	0.0132	3.28	0.0443	4.53	0.0137	3.43	0.0658	–	20.9	–	–	–
CO[C@@]1(c2ccccc2)O[C@H]2OCCC2[C@H]1c1ccc(Cl)cc1 (stereo not given in full)	–	> 100	–	–	–	> 100	–	–	–	> 100	–	–	–	> 100	–	> 100	–	–	–	–
CC1=NOC(=O)/C1=C/c1ccc2c(c1)OCO2	–	46.6	–	56.8	–	36.4	–	> 100	–	> 100	–	53.9	–	49.8	–	55.2	–	> 100	–	–
CC(=O)[O-].N.N.N.N.[Co+3].[O-][Cl+3]([O-])([O-])[O-].[OH3+]	> 100	> 100	–	–	–	–	–	–	> 100	> 100	–	–	–	–	> 100	> 100	–	–	> 100	> 100
C[CH2][Sn]([CH2]C)([O]C(=O)c1ccc(F)cc1)[O]C(=O)c1ccc(F)cc1	18.8	35.1	–	–	4.05	16.3	–	–	17.5	33.4	–	–	15.5	29.4	20.1	53.9	–	–	> 100	60.5
Nc1ccc(/C=C/c2ccc3cccnc3c2)cc1	–	> 100	–	–	–	> 100	–	> 100	–	> 100	–	> 100	–	> 100	–	> 100	–	> 100	> 100	–
CCN(Cc1c(F)cccc1Cl)c1ccc(CO)c(Cl)c1	14.9	30.1	16.5	31.2	1.2	17.4	18.2	47	17.6	35.9	13.3	27.1	–	–	0.173	22	< 0.0153	0.0496	37.3	13
COC(=O)N[C@H]1CCc2c(Cl)c(OC)c(OC)c(OC)c2-c2ccc(SC)c(=O)cc21	< 0.01	> 36.9	< 0.01	1.52	< 0.0208	48.3	< 0.01	> 100	< 0.01	–	< 0.01	11.9	< 0.01	14.2	< 0.01	> 42.8	–	–	< 0.0127	< 0.01
C=C1C(OC(C)=O)CC(OC(C)=O)C2(C)C(OC(C)=O)C(OC(C)=O)C3=C(C)C(OC(=O)/C=C/c4ccccc4)CC(C(OC(C)=O)C12)C3(C)C (stereo not given)	–	> 100	–	–	–	> 100	–	–	–	> 100	–	–	–	> 100	–	> 100	–	–	> 100	–
Cc1cccc2c1[nH]c(=O)c1c3ccccc3cn21	5.92	32.2	12	59.2	2.19	8.75	21.8	64.4	12.4	30.9	2.42	17.5	3.25	27.6	2	7.15	11.5	48.5	–	–
CCOC(=O)/C=C/c1cccc(F)c1	–	> 100	–	> 100	–	> 100	–	–	–	> 100	–	> 100	–	> 100	–	> 100	–	> 100	> 100	–
C[C@H]1C=C2C(=O)O[C@H]3CC[C@@H](C1)[C@@]23O	–	12.2	–	–	–	14.8	–	–	–	14.7	–	–	–	29.3	–	> 100	–	–	4.55	–
COc1ccc2c(c1)CCc1c-2n[nH]c1-c1[nH]nc2c1CCc1cc(OC)ccc1-2	–	41.1	–	–	–	92.7	–	–	–	> 100	–	–	–	85.9	–	–	–	–	> 100	–
COc1ccc2nc3cc(Cl)ccc3c(Nc3cc(CN4CCCC4)c(O)c(CN4CCCC4)c3)c2n1	1.87	11.4	2.46	5.66	2.37	8.44	–	–	1.62	2.97	1.86	8.17	1.55	3.24	2.1	5.7	2.74	9.55	4.78	2.07
